Data as given in US20060121607A1, “Compositions and methods for neural differentiation of embryonic stem cells” (priority 2002, published 2006).

Experiments:
[1] = tested on: sfEBM single cell suspension; assay: Clonal derivation of colonies from dispersed sfEBM in suspension; format: cell-based, human; details: medium containing the factor alone
Description: sfEBMs were transferred to tissue culture dishes (4-well or 35 mm) and were rinsed with Ca^2+/Mg^2+ free PBS. After settling, the PBS was aspirated and 1 or 2 ml of 0.25% trypsin was added. sfEBMs were dispersed to a single cell suspension, with occasional doublets or triplets, by gentle trituration using a 1 ml pipette. The cell suspension was transferred to a 15 ml tube, diluted with 9 or 18 ml of medium and pelleted by centrifugation. The pellet was resuspended in DMEM/F12 supplemented with 1×N2 supplement, FGF-2 (4 ng/ml), 50% MEDII and added to agarose coated suspension dishes at low density (0.5-5 cells/μl). These cultures were not disturbed for 4-5 days, when small uniform colonies could be observed. Colonies could be harvested at approximately 10 days.
In an attempt to derive clones of essentially serum free embryoid bodies, trypsin was used to generate single cell suspensions from sfEBM cultures and low density cell suspensions, from 0-0.5-5 cells/μl, were incubated in suspension dishes. […] The synergistic activities of FGF2 and MEDII in the derivation of clonal sfEBMs was unexpected. […] The colonies produced were presumed to be clonal, and proliferated to as much as 0.2 mm in diameter within 10 days. The cloning efficiency was in the order of 4.5-6%.

[2] = tested on: SSEA4 selected HESCs; details: 50 μM Proline, around 3 weeks suspension
Text: Essentially serum free embryoid bodies were generated from bulk passaged monolayer HESC colonies as described in Example 5, in the presence of the media set out below.

[3] = tested on: human ES cells; assay: Comparison of basic media for TH+ cell formation in human embryoid bodies; format: cell-based; details: DMEM and 100 μM L-proline, absence of FGF2
Description: Embryoid bodies/neurospheres from human ES cells were grown without the use of MEDII conditioned media Media and supplements used were Hams DMEM/F12 (Gibco Cat # 11320-033), ITSS (Gibco Cat#17502-048) and N2 (Gibco Cat#41400-045).
The ability of basic media with supplements (DMEM+N2 or ITSS) to promote neural differentiation of hES cells was compared with medium that included F12: (DMEM:F12 (1:1)+N2 or ITSS).
Trypsinised Human ES cells were seeded at approximately 10 to 20 cells/μl of media into 10 ml of neurosphere media (DMEM:F12, 10 μg/ml heparin (SIGMA), 1/50 B27 (GIBCO), 1/100 pen/strep, 1/100 ITSS) in a T75 culture flask. 10 ng/ml FGF2 was optionally added but the culture medium was preferably mitogen-free (no FGF2). Cultures were maintained in the media for 9 days after which the embryoid bodies were optionally transferred to poly-L-ornithine/laminin plates and cultured in the same media for a further 6 days. The embryoid bodies so formed (EB^15), whether from adherent or suspension culture, were then triturated to near single cell form and used for either transplantation or for the formation of neurospheres/cell reaggregates.
Example 15 was repeated utilising human ES cells and a minimal media consisting of DMEM and 100 μM L-proline. The results were similar to those described in Example 5. […]

Row | Compound | generation of clonal colonies [1] | appearance of sfEBPs with low cell death and distinct neural rosette structures [2] | TH+ cells in EB^17 bodies [3]
1 | FGF-2: fibroblast growth factor FGF-2 | No clonal colonies |  | 
2 | O=C(O)[C@@H]1CCCN1 [L-proline] |  | noticeably enhanced | ~50%
